System: Old mice
Test: Wire hang test
Assay type: in vivo, mouse
Settings: creatine 120 mg/kg
Procedure: The test was performing using a wire having a diameter of 2 mm installed at a height of 25 cm. Each mouse was placed on the wire using only the front legs, and the time of hanging without falling was measured. The time when the mouse was suspended and then dropped was measured and the test was conducted for a maximum of 120 seconds. In this way, each mouse was repeated 3 times at approximately 20 minute intervals. The results of each mouse were analyzed for the average value of the first and longest hanging time in three trials. […] In addition, creatine 120 mg/kg (creatine-120) was administered to mice as a positive control, and the test was conducted under the same conditions.

Q: With CN(CC(=O)O)C(=N)N [creatine] as the molecule, how does the “wire hang effect of positive control vs aging mouse group” value read?
A: Its value is “more effective than the aging mouse group”.
